Values belong to the compound of their own block, whether it stands above or below them.
Legend:
vegetarian subjects = conditions: 5 g/day for six weeks; cited from earlier work
brain aging = conditions: 1 g daily, 12 weeks; cited from earlier work
Caco2 monolayer = experiment: Permeability of α-GPC through a Caco2 monolayer in the presence and absence of blueberry polyphenol extract; assay type: in vitro ADME; parameters: cumulative L-α-GPC, averaged over runs: scale not given here; conditions: for cumulative L-α-GPC, averaged over runs: average of runs 1 and 2; for cumulative L-α-GPC: 5 mM α-GPC in DPBS alone or with 1 mg/ml blueberry polyphenol extract
Description: In another series of experiments, the permeability of α-GPC through a Caco2 monolayer was measured to determine whether the presence of a blueberry-based polyphenol extract affected permeability.
More particularly, donor GPC concentrations were reduced to 5 mM. […] This experiment consisted of two independent runs (as identified below as run 1 and run 2). […] The data from the runs is summarized in Table 2, illustrated in FIG. 2 (Total Alpha GPC permeability through a Caco2 monolayer) and averaged below in Table 3. The averaged data is illustrated in FIG. 3. In each of the graphs, the vertical axis units are cumulative L-α-GPC in μg/cm2 and the horizontal axis units are minutes.

hippocampus of the rats = conditions: cited from earlier work
[1] = test system: patients with probable senile dementia of Alzheimer's type; conditions: cited from earlier work
[2] = test system: patients with dementia disorders; conditions: 1570 patients in 10 studies; cited from earlier work
[3] = test system: cognitive impairment due to Alzheimer's disease; conditions: 400 mg capsules three times daily; cited from earlier work
rats = conditions: 250 mg/kg injections for three weeks, three weeks after pilocarpine; cited from earlier work
[4] = 100-300 mg/day; cited from earlier work

SMILES: CN(CC(=O)O)C(=N)N [creatine]
working memory and intelligence (vegetarian subjects): Positive results

SMILES: NC(=O)CN1CC(O)CC1=O (centres unmarked) [oxiracetam]
clinical response in brain aging (brain aging): early improvement which was maintained during the therapy but was rapidly attenuated after discontinuation of the therapy

effect of α-GPC on permeation of the blueberry polyphenols through the Caco2 monolayer (Caco2 monolayer): did not significantly change | cumulative L-α-GPC, averaged over runs (Caco2 monolayer; 15 min): 0.128 μg/cm2 | cumulative L-α-GPC, averaged over runs (Caco2 monolayer; 30 min): 0.471 μg/cm2 | cumulative L-α-GPC, averaged over runs (Caco2 monolayer; 45 min): 0.643 μg/cm2 | cumulative L-α-GPC, averaged over runs (Caco2 monolayer; 60 min): 0.815 μg/cm2 | cumulative L-α-GPC, averaged over runs (Caco2 monolayer; 75 min): 1.017 μg/cm2 | cumulative L-α-GPC, averaged over runs (Caco2 monolayer; 90 min): 1.292 μg/cm2 | cumulative L-α-GPC (Caco2 monolayer; run 1, 15 min): 18.75 μg/cm2 | cumulative L-α-GPC (Caco2 monolayer; run 1, 30 min): 41.37 μg/cm2 | cumulative L-α-GPC (Caco2 monolayer; run 1, 45 min): 67.92 μg/cm2 | cumulative L-α-GPC (Caco2 monolayer; run 1, 60 min): 103.2 μg/cm2 | cumulative L-α-GPC (Caco2 monolayer; run 1, 75 min): 150.0 μg/cm2 | cumulative L-α-GPC (Caco2 monolayer; run 1, 90 min): 222.4 μg/cm2 | cumulative L-α-GPC (Caco2 monolayer; run 2, 15 min): 47.16 μg/cm2 | cumulative L-α-GPC (Caco2 monolayer; run 2, 30 min): 200.9 μg/cm2 | cumulative L-α-GPC (Caco2 monolayer; run 2, 45 min): 262.8 μg/cm2 | cumulative L-α-GPC (Caco2 monolayer; run 2, 60 min): 316.1 μg/cm2 | cumulative L-α-GPC (Caco2 monolayer; run 2, 75 min): 373.3 μg/cm2 | cumulative L-α-GPC (Caco2 monolayer; run 2, 90 min): 442.1 μg/cm2
SMILES: C[N+](C)(C)CCOP(=O)([O-])OC[C@H](O)CO [α-GPC, Alpha-glycerylphosphorylcholine]
clinical response in brain aging (brain aging): slower but more sustained | acetylcholine release in the hippocampus (hippocampus of the rats; 75 mg/kg i.g.): able to increase acetylcholine release | dose with maximum effect on acetylcholine release (hippocampus of the rats; i.g.): 300 mg/kg | improvements compared with the ST200 patients ([1]; ST200 1000 mg morning and 500 mg afternoon): significantly better | intellectual and emotional impairments ([1]; oral 800 mg morning and 400 mg afternoon, six months): significantly improved | patient clinical results, cognitive symptoms of adult-onset dementia disorders [2]: improved patient clinical results | treatment of the cognitive symptoms of Alzheimer's disease [3]: useful | cognitive function (rats): improved | neurogenesis (rats): increased | memory, concentration, and focus [4]: helps maintain and improve | peak power and force output during strenuous exercises [4]: helps to increase
